The compounds below were run on HeLa cells (assay: MTT antiproliferative assay on HeLa). Settings: Homo sapiens, HeLa, 10 μM; read-out: Growth inhibition (% ± SEM), HeLa.
Assay type: cell-based, human
Description: (§1) The antiproliferative assays of the products were carried out by a standard MTT method on human breast (MCF-7, T47D), cervical (HeLa, SiHa, C33A), and ovarian (A2780) cancer cells, and NIH/3T3 mouse embryonic fibroblast cell lines. In the first step, the diastereomeric and racemic mixtures 1–11 and the starting compound, juncuenin B, were tested to obtain information about their antiproliferative activity.
(§2) The antiproliferative activity and tumor selectivity of the compounds were measured by standard MTT assays. Tumor cell lines MCF-7, T47D, HeLa, A2780, and noncancerous NIH/3T3 were provided by European Collection of Authenticated Cell Cultures (ECACC, Salisbury, UK); cell lines SiHa and C33A by LGC Standards GmbH (Wesel, Germany). All chemicals and materials used for the antiproliferative assays were purchased from Sigma Aldrich Ltd. (Budapest, Hungary).
(§3) Growth-inhibition properties of racemates and pure enantiomer compounds were determined by standard MTT assays on six human malignant gynecological cell lines (MCF-7, T47D, HeLa, SiHa, C33A, A2780). To investigate tumor selectivity, the MTT assay was repeated on mouse embryonic fibroblast cells (NIH/3T3) under the same conditions. All cell lines were maintained in minimal essential medium (MEM) supplemented with 10% fetal bovine serum, 1% nonessential amino acids, and 1% penicillin–streptomycin–amphotericin B mixture, and were stored in humidified air containing 5% CO2 at 37 °C. All cell types were seeded into 96–well plates at a density of 5000 with the exception of C33a, which was seeded at a density of 10 000 and treated by increasing concentrations (0.1–30 μM) of the compounds for 72 h under cell culturing conditions. After the incubation, 5 mg/mL MTT [3-(4,5-dimethylthiazol-2-yl)-2,5-diphenyltetrazolium bromide] solution was added to samples for 4 h and precipitated blue formazan crystals were dissolved in DMSO. Absorbance values of the samples were measured at 545 nm using a microplate reader (Stat Fax-2100, Awareness Technologies Inc., Palm City, FL, USA) and untreated cells were used as control. Normalized sigmoidal dose–response curves were fitted to the determined data and the IC50 values were calculated by GraphPad Prism 5.01 (GraphPad Software, San Diego, CA, USA). Cisplatin (Ebewe Pharma GmbH, Unterach, Austria) was used as a reference agent in the same concentration range.

SMILES	inhibition at 10 µM [%]
C=CC1=C(C)C(=O)C=C2C3=C(CC[C@]21OC)[C@@](C)(OC)C(=O)C=C3 [Compound 1b, 2,6-dioxo-1,8a-dimethoxy-1,7-dimethyl-8-vinyl-9,10-dihydrophenanthrenes]	16.3 ± 2.68
C=CC1=C(C)C(=O)C=C2C3=C(CC[C@@]21OC)[C@](C)(OC)C(=O)C=C3 [Compound 1c, 2,6-dioxo-1,8a-dimethoxy-1,7-dimethyl-8-vinyl-9,10-dihydrophenanthrenes]	28.3 ± 1.66

Same assay, conditions: Homo sapiens, HeLa, 30 μM; read-out: Growth inhibition (% ± SEM), HeLa

SMILES	inhibition at 30 µM [%]
C=CC1=C(C)C(=O)C=C2C3=C(CC[C@]21OC)[C@@](C)(OC)C(=O)C=C3 [Compound 1b, 2,6-dioxo-1,8a-dimethoxy-1,7-dimethyl-8-vinyl-9,10-dihydrophenanthrenes]	42.6 ± 2.07
C=CC1=C(C)C(=O)C=C2C3=C(CC[C@@]21OC)[C@](C)(OC)C(=O)C=C3 [Compound 1c, 2,6-dioxo-1,8a-dimethoxy-1,7-dimethyl-8-vinyl-9,10-dihydrophenanthrenes]	36.1 ± 0.87

Same assay, conditions: Homo sapiens, HeLa; MTT, 0.1–30 μM, 72 h, mean ± SEM; read-out: calculated IC50 values, HeLa

SMILES	IC50 [µM]
C=CC1=C(C)C(=O)C=C2C3=C(CC[C@]21OC)[C@@](C)(OC)C(=O)C=C3 [Compound 1b, 2,6-dioxo-1,8a-dimethoxy-1,7-dimethyl-8-vinyl-9,10-dihydrophenanthrenes]	> 30
C=CC1=C(C)C(=O)C=C2C3=C(CC[C@@]21OC)[C@](C)(OC)C(=O)C=C3 [Compound 1c, 2,6-dioxo-1,8a-dimethoxy-1,7-dimethyl-8-vinyl-9,10-dihydrophenanthrenes]	> 30

Each compound was assayed on C33A cells (assay: MTT antiproliferative assay on C33A). Settings: Homo sapiens, C-33-A, 10 μM; read-out: Growth inhibition (% ± SEM), C33a.
Assay type: cell-based, human
Description: as §1, §2, §3

SMILES	inhibition at 10 µM [%]
C=CC1=C(C)C(=O)C=C2C3=C(CC[C@]21OC)[C@@](C)(OC)C(=O)C=C3 [Compound 1b, 2,6-dioxo-1,8a-dimethoxy-1,7-dimethyl-8-vinyl-9,10-dihydrophenanthrenes]	46 ± 2.01
C=CC1=C(C)C(=O)C=C2C3=C(CC[C@@]21OC)[C@](C)(OC)C(=O)C=C3 [Compound 1c, 2,6-dioxo-1,8a-dimethoxy-1,7-dimethyl-8-vinyl-9,10-dihydrophenanthrenes]	85.7 ± 1.16

Same assay, conditions: Homo sapiens, C-33-A, 30 μM; read-out: Growth inhibition (% ± SEM), C33a

SMILES	inhibition at 30 µM [%]
C=CC1=C(C)C(=O)C=C2C3=C(CC[C@]21OC)[C@@](C)(OC)C(=O)C=C3 [Compound 1b, 2,6-dioxo-1,8a-dimethoxy-1,7-dimethyl-8-vinyl-9,10-dihydrophenanthrenes]	95.12 ± 0.44
C=CC1=C(C)C(=O)C=C2C3=C(CC[C@@]21OC)[C@](C)(OC)C(=O)C=C3 [Compound 1c, 2,6-dioxo-1,8a-dimethoxy-1,7-dimethyl-8-vinyl-9,10-dihydrophenanthrenes]	96.31 ± 0.17

Same assay, conditions: Homo sapiens, C-33-A; MTT, 0.1–30 μM, 72 h, mean ± SEM; read-out: calculated IC50 values, C33A

SMILES	IC50 [µM]
C=CC1=C(C)C(=O)C=C2C3=C(CC[C@]21OC)[C@@](C)(OC)C(=O)C=C3 [Compound 1b, 2,6-dioxo-1,8a-dimethoxy-1,7-dimethyl-8-vinyl-9,10-dihydrophenanthrenes]	10.2 ± 1.7

Each compound was assayed on T47D cells (assay: MTT antiproliferative assay on T47D). Settings: Homo sapiens, T47D, 10 μM; read-out: Growth inhibition (% ± SEM), T47d.
Assay type: cell-based, human
Description: as §1, §2, §3

SMILES	inhibition at 10 µM [%]
C=CC1=C(C)C(=O)C=C2C3=C(CC[C@]21OC)[C@@](C)(OC)C(=O)C=C3 [Compound 1b, 2,6-dioxo-1,8a-dimethoxy-1,7-dimethyl-8-vinyl-9,10-dihydrophenanthrenes]	13.6 ± 1.33
C=CC1=C(C)C(=O)C=C2C3=C(CC[C@@]21OC)[C@](C)(OC)C(=O)C=C3 [Compound 1c, 2,6-dioxo-1,8a-dimethoxy-1,7-dimethyl-8-vinyl-9,10-dihydrophenanthrenes]	36.4 ± 2.76

Same assay, conditions: Homo sapiens, T47D, 30 μM; read-out: Growth inhibition (% ± SEM), T47d

SMILES	inhibition at 30 µM [%]
C=CC1=C(C)C(=O)C=C2C3=C(CC[C@]21OC)[C@@](C)(OC)C(=O)C=C3 [Compound 1b, 2,6-dioxo-1,8a-dimethoxy-1,7-dimethyl-8-vinyl-9,10-dihydrophenanthrenes]	43.8 ± 1.31
C=CC1=C(C)C(=O)C=C2C3=C(CC[C@@]21OC)[C@](C)(OC)C(=O)C=C3 [Compound 1c, 2,6-dioxo-1,8a-dimethoxy-1,7-dimethyl-8-vinyl-9,10-dihydrophenanthrenes]	84.5 ± 1.63

Same assay, conditions: Homo sapiens, T47D; MTT, 0.1–30 μM, 72 h, mean ± SEM; read-out: calculated IC50 values, T47D

SMILES	IC50 [µM]
C=CC1=C(C)C(=O)C=C2C3=C(CC[C@]21OC)[C@@](C)(OC)C(=O)C=C3 [Compound 1b, 2,6-dioxo-1,8a-dimethoxy-1,7-dimethyl-8-vinyl-9,10-dihydrophenanthrenes]	> 30
C=CC1=C(C)C(=O)C=C2C3=C(CC[C@@]21OC)[C@](C)(OC)C(=O)C=C3 [Compound 1c, 2,6-dioxo-1,8a-dimethoxy-1,7-dimethyl-8-vinyl-9,10-dihydrophenanthrenes]	12.5 ± 0.9

The compounds below were run on SiHa cells (assay: MTT antiproliferative assay on SiHa). Settings: Homo sapiens, SiHa, 10 μM; read-out: Growth inhibition (% ± SEM), SiHa.
Assay type: cell-based, human
Description: as §1, §2, §3

SMILES	inhibition at 10 µM [%]
C=CC1=C(C)C(=O)C=C2C3=C(CC[C@]21OC)[C@@](C)(OC)C(=O)C=C3 [Compound 1b, 2,6-dioxo-1,8a-dimethoxy-1,7-dimethyl-8-vinyl-9,10-dihydrophenanthrenes]	< 10
C=CC1=C(C)C(=O)C=C2C3=C(CC[C@@]21OC)[C@](C)(OC)C(=O)C=C3 [Compound 1c, 2,6-dioxo-1,8a-dimethoxy-1,7-dimethyl-8-vinyl-9,10-dihydrophenanthrenes]	< 10

Same assay, conditions: Homo sapiens, SiHa, 30 μM; read-out: Growth inhibition (% ± SEM), SiHa

SMILES	inhibition at 30 µM [%]
C=CC1=C(C)C(=O)C=C2C3=C(CC[C@]21OC)[C@@](C)(OC)C(=O)C=C3 [Compound 1b, 2,6-dioxo-1,8a-dimethoxy-1,7-dimethyl-8-vinyl-9,10-dihydrophenanthrenes]	27.7 ± 1.96
C=CC1=C(C)C(=O)C=C2C3=C(CC[C@@]21OC)[C@](C)(OC)C(=O)C=C3 [Compound 1c, 2,6-dioxo-1,8a-dimethoxy-1,7-dimethyl-8-vinyl-9,10-dihydrophenanthrenes]	57.5 ± 2.33

Same assay, conditions: Homo sapiens, SiHa; MTT, 0.1–30 μM, 72 h, mean ± SEM; read-out: calculated IC50 values, SiHa

SMILES	IC50 [µM]
C=CC1=C(C)C(=O)C=C2C3=C(CC[C@]21OC)[C@@](C)(OC)C(=O)C=C3 [Compound 1b, 2,6-dioxo-1,8a-dimethoxy-1,7-dimethyl-8-vinyl-9,10-dihydrophenanthrenes]	> 30
C=CC1=C(C)C(=O)C=C2C3=C(CC[C@@]21OC)[C@](C)(OC)C(=O)C=C3 [Compound 1c, 2,6-dioxo-1,8a-dimethoxy-1,7-dimethyl-8-vinyl-9,10-dihydrophenanthrenes]	28.1 ± 0.1

These compounds were tested on A2780 cells (assay: MTT antiproliferative assay on A2780). Settings: Homo sapiens, A2780, 10 μM; read-out: Growth inhibition (% ± SEM), A2780.
Assay type: cell-based, human
Description: as §1, §2, §3

SMILES	inhibition at 10 µM [%]
C=CC1=C(C)C(=O)C=C2C3=C(CC[C@]21OC)[C@@](C)(OC)C(=O)C=C3 [Compound 1b, 2,6-dioxo-1,8a-dimethoxy-1,7-dimethyl-8-vinyl-9,10-dihydrophenanthrenes]	52.2 ± 1.02
C=CC1=C(C)C(=O)C=C2C3=C(CC[C@@]21OC)[C@](C)(OC)C(=O)C=C3 [Compound 1c, 2,6-dioxo-1,8a-dimethoxy-1,7-dimethyl-8-vinyl-9,10-dihydrophenanthrenes]	68.5 ± 0.75

Same assay, conditions: Homo sapiens, A2780, 30 μM; read-out: Growth inhibition (% ± SEM), A2780

SMILES	inhibition at 30 µM [%]
C=CC1=C(C)C(=O)C=C2C3=C(CC[C@]21OC)[C@@](C)(OC)C(=O)C=C3 [Compound 1b, 2,6-dioxo-1,8a-dimethoxy-1,7-dimethyl-8-vinyl-9,10-dihydrophenanthrenes]	96.61 ± 0.23
C=CC1=C(C)C(=O)C=C2C3=C(CC[C@@]21OC)[C@](C)(OC)C(=O)C=C3 [Compound 1c, 2,6-dioxo-1,8a-dimethoxy-1,7-dimethyl-8-vinyl-9,10-dihydrophenanthrenes]	98.88 ± 0.1

Same assay, conditions: Homo sapiens, A2780; MTT, 0.1–30 μM, 72 h, mean ± SEM; read-out: calculated IC50 values, A2780

SMILES	IC50 [µM]
C=CC1=C(C)C(=O)C=C2C3=C(CC[C@]21OC)[C@@](C)(OC)C(=O)C=C3 [Compound 1b, 2,6-dioxo-1,8a-dimethoxy-1,7-dimethyl-8-vinyl-9,10-dihydrophenanthrenes]	9 ± 1

Each compound was assayed on MCF-7 cells (assay: MTT antiproliferative assay on MCF-7). Settings: Homo sapiens, MCF7, 10 μM; read-out: Growth inhibition (% ± SEM), MCF-7.
Assay type: cell-based, human
Description: as §1, §2, §3

SMILES	inhibition at 10 µM [%]
C=CC1=C(C)C(=O)C=C2C3=C(CC[C@]21OC)[C@@](C)(OC)C(=O)C=C3 [Compound 1b, 2,6-dioxo-1,8a-dimethoxy-1,7-dimethyl-8-vinyl-9,10-dihydrophenanthrenes]	14.2 ± 3.54
C=CC1=C(C)C(=O)C=C2C3=C(CC[C@@]21OC)[C@](C)(OC)C(=O)C=C3 [Compound 1c, 2,6-dioxo-1,8a-dimethoxy-1,7-dimethyl-8-vinyl-9,10-dihydrophenanthrenes]	10.2 ± 4.97

Same assay, conditions: Homo sapiens, MCF7, 30 μM; read-out: Growth inhibition (% ± SEM), MCF-7

SMILES	inhibition at 30 µM [%]
C=CC1=C(C)C(=O)C=C2C3=C(CC[C@]21OC)[C@@](C)(OC)C(=O)C=C3 [Compound 1b, 2,6-dioxo-1,8a-dimethoxy-1,7-dimethyl-8-vinyl-9,10-dihydrophenanthrenes]	31.9 ± 1.28
C=CC1=C(C)C(=O)C=C2C3=C(CC[C@@]21OC)[C@](C)(OC)C(=O)C=C3 [Compound 1c, 2,6-dioxo-1,8a-dimethoxy-1,7-dimethyl-8-vinyl-9,10-dihydrophenanthrenes]	28.1 ± 1.14

Same assay, conditions: Homo sapiens, MCF7; MTT, 0.1–30 μM, 72 h, mean ± SEM; read-out: calculated IC50 values, MCF-7

SMILES	IC50 [µM]
C=CC1=C(C)C(=O)C=C2C3=C(CC[C@]21OC)[C@@](C)(OC)C(=O)C=C3 [Compound 1b, 2,6-dioxo-1,8a-dimethoxy-1,7-dimethyl-8-vinyl-9,10-dihydrophenanthrenes]	> 30
C=CC1=C(C)C(=O)C=C2C3=C(CC[C@@]21OC)[C@](C)(OC)C(=O)C=C3 [Compound 1c, 2,6-dioxo-1,8a-dimethoxy-1,7-dimethyl-8-vinyl-9,10-dihydrophenanthrenes]	> 30

The compounds below were run on NIH/3T3 mouse embryonic fibroblast cells (assay: MTT assay for tumor selectivity on NIH/3T3). Settings: Mus musculus, NIH3T3; 10 μM; read-out: Growth inhibition (% ± SEM), NIH.
Assay type: cell-based
Description: as §1, §2, §3

SMILES	inhibition at 10 µM [%]
C=CC1=C(C)C(=O)C=C2C3=C(CC[C@]21OC)[C@@](C)(OC)C(=O)C=C3 [Compound 1b, 2,6-dioxo-1,8a-dimethoxy-1,7-dimethyl-8-vinyl-9,10-dihydrophenanthrenes]	< 10
C=CC1=C(C)C(=O)C=C2C3=C(CC[C@@]21OC)[C@](C)(OC)C(=O)C=C3 [Compound 1c, 2,6-dioxo-1,8a-dimethoxy-1,7-dimethyl-8-vinyl-9,10-dihydrophenanthrenes]	< 10

Same assay, conditions: Mus musculus, NIH3T3; 30 μM; read-out: Growth inhibition (% ± SEM), NIH

SMILES	inhibition at 30 µM [%]
C=CC1=C(C)C(=O)C=C2C3=C(CC[C@]21OC)[C@@](C)(OC)C(=O)C=C3 [Compound 1b, 2,6-dioxo-1,8a-dimethoxy-1,7-dimethyl-8-vinyl-9,10-dihydrophenanthrenes]	41.9 ± 1.35
C=CC1=C(C)C(=O)C=C2C3=C(CC[C@@]21OC)[C@](C)(OC)C(=O)C=C3 [Compound 1c, 2,6-dioxo-1,8a-dimethoxy-1,7-dimethyl-8-vinyl-9,10-dihydrophenanthrenes]	69.4 ± 1.87
